The values below come from patent US12692261B2, “Substituted heterocyclic compounds and therapeutic uses thereof” (Bayer Aktiengesellschaft, priority 2020, dated 2026).

In test [1] the target is T1, full-length human CSNK1A1 (Homo sapiens, UniProt P48729).
T1 construct: N-terminal Glutathion-S-Transferase (GST) and full-length human CSNK1A1; purchased Life Technologies PV4174; host or cells: baculovirus infected insect cells
Nature of the test: CSNK1A1 Assay 2 (ADP-Glo, 1 μM ATP, substrate biotin-Ahx-KRRRAL-pS-VASLPGL). In kind it is biochemical. Conditions: Table 3, read-out: CSNK1A1 Assay 2 IC50 [mol/l] (median). Put shortly:
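Activity read as ADP generated (ADP-Glo luciferase luminescence, 1 h detection steps at 22 °C). Enzyme was insect-cell-expressed GST–full-length human CSNK1A1, compound-preincubated 15 min before reaction with phosphopeptide substrate and 1 μM ATP in 50 mM HEPES pH 7.5, 10 mM MgCl2.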
On the technique in general: In ADP-Glo the light output rises with the ADP produced.

The target of test [2] is T1, full-length human CSNK1A1. Nature of the test: CSNK1A1 High ATP Assay (ADP-Glo, 1 mM ATP).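 Further: 30 min kinase reaction at 22 °C with 100 µM peptide substrate.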 It is filed as biochemical. Conditions: Table 3, read-out: CSNK1A1 high ATP assay IC50 [mol/l] (median). The gist of the method: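 Kinase activity taken as ADP generated, quantified by ADP-Glo luminescence after 1 h ATP depletion and 1 h detection at 22 °C. Enzyme is GST–full-length human CSNK1A1 (insect cell-expressed), pre-bound to compound for 15 min, with phosphopeptide substrate and 1 mM ATP.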

T1 sequence (P48729 whole entry): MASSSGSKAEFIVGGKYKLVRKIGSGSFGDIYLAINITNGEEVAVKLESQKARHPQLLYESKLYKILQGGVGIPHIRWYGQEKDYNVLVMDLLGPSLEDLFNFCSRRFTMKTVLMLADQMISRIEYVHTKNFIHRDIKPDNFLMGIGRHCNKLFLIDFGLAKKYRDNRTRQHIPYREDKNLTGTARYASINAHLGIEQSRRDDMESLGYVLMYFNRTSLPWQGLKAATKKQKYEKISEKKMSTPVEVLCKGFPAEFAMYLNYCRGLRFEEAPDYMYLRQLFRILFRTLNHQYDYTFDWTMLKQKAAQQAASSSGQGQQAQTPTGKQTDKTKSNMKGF

In the case of `O=C(Nc1cc(-c2[nH]c3c(OCC(F)(F)F)ncnc3c2-c2ccccn2)ccn1)C(CC(F)F)c1ccc(F)cc1` (racemic) [Example 122, (2RS)-4,4-difluoro-2-(4-fluorophenyl)-N-{4-[7-(pyridin-2-yl)-4-(2,2,2-trifluoroethoxy)-5H-pyrrolo[3,2-d]pyrimidin-6-yl]pyridin-2-yl}butanamide], the IC50 in test [1] worked out at 7.69 nM; in test [2], 29.9 nM.

For `Cc1cnc2c(-c3ccccn3)c(-c3ccnc(NC(=O)C(CC(F)F)c4ccc(F)cc4)c3)[nH]c2c1` (racemic) [Example 7, 4,4-difluoro-2-(4-fluorophenyl)-N-{4-[6-methyl-3-(pyridin-2-yl)-1H-pyrrolo[3,2-b]pyridin-2-yl]pyridin-2-yl}butanamide], the IC50 in test [1] stood at 2.76 nM; in test [2], 8.12 nM.

With `O=C(Nc1cc(-c2[nH]c3ccc(F)nc3c2-c2ccccn2)ccn1)[C@H](CC(F)F)c1ccc(F)cc1` (single isomer, unassigned) [Example 3], the IC50 in test [1] is 9.21 nM; in test [2], 849 nM.

For `O=C(Nc1cc(-c2[nH]c3ccc(F)nc3c2-c2ccc(F)cn2)ccn1)C(CC(F)F)c1ccc(F)cc1` (single isomer, unassigned; (-)) [Example 110, (−)-4,4-difluoro-N-{4-[5-fluoro-3-(5-fluoropyridin-2-yl)-1H-pyrrolo[3,2-b]pyridin-2-yl]pyridin-2-yl}-2-(4-fluorophenyl)butanamide], the IC50 in test [1] and in test [2] was 47.6 nM in each case.

For the compound `O=C(Nc1cc(-c2[nH]c3cccnc3c2-c2cccc(F)n2)ccn1)C(CC(F)F)c1ccc(F)cc1` (single isomer, unassigned; (-)) [Example 26, (−)-4,4-difluoro-2-(4-fluorophenyl)-N-{4-[3-(6-fluoropyridin-2-yl)-1H-pyrrolo[3,2-b]pyridin-2-yl]pyridin-2-yl}butanamide], the IC50 in test [1] and in test [2] was 15.8 nM in each case.

For the compound `O=C(Nc1cc(-c2[nH]c3ccc(F)nc3c2-c2cc(F)ccn2)ccn1)C(CC(F)F)c1ccc(F)cc1` (single isomer, unassigned) [Example 97, (2R or S)-4,4-difluoro-N-{4-[5-fluoro-3-(4-fluoropyridin-2-yl)-1H-pyrrolo[3,2-b]pyridin-2-yl]pyridin-2-yl}-2-(4-fluorophenyl)butanamide], the IC50 in test [1] and in test [2] was 36 nM throughout.

Consider `O=C(Nc1cc(-c2[nH]c3c(N4CCNCC4)ccnc3c2-c2ccccn2)ccn1)C(CC(F)F)c1ccc(F)cc1` (single isomer, unassigned) [Example 93, (2R or S)-4,4-difluoro-2-(4-fluorophenyl)-N-{4-[7-(piperazin-1-yl)-3-(pyridin-2-yl)-1H-pyrrolo[3,2-b]pyridin-2-yl]pyridin-2-yl}butanamide], for which the IC50 in test [1] and in test [2] was 5.35 nM in each case.

Take `COc1cnc2c(-c3ccccn3)c(-c3ccnc(NC(=O)C(CC(F)F)c4ccc(F)cc4)c3)[nH]c2n1` (centres unmarked) [Example 101, 4,4-difluoro-2-(4-fluorophenyl)-N-{4-[3-methoxy-7-(pyridin-2-yl)-5H-pyrrolo[2,3-b]pyrazin-6-yl]pyridin-2-yl}butanamide]: the IC50 in test [1] and in test [2] was 4.82 nM each time.

Turning to `Cc1ccc2[nH]c(-c3ccnc(NC(=O)C(CC(F)F)c4ccc(F)cc4)c3)c(-c3ccccn3)c2n1` (single isomer, unassigned) [Example 6, 4,4-difluoro-2-(4-fluorophenyl)-N-{4-[5-methyl-3-(pyridin-2-yl)-1H-pyrrolo[3,2-b]pyridin-2-yl]pyridin-2-yl}butanamide], the results for the IC50 in test [1] and in test [2] were 68.2 nM and 2990 nM, respectively.

Take `O=C(Nc1cc(-c2[nH]c3cc(F)cnc3c2-c2ccccn2)ccn1)C(CC(F)F)c1ccc(F)cc1` (racemic) [Example 16, 4,4-difluoro-2-(4-fluorophenyl)-N-{4-[6-fluoro-3-(pyridin-2-yl)-1H-pyrrolo[3,2-b]pyridin-2-yl]pyridin-2-yl}butanamide]: the IC50 in test [1] worked out at 3.39 nM; in test [2], 21.9 nM.

Consider `O=C(Nc1cc(-c2[nH]c3nccnc3c2-c2ccccn2)ccn1)C(CC(F)F)c1ccc(F)cc1` (racemic) [Example 31, (2RS)-4,4-difluoro-2-(4-fluorophenyl)-N-{4-[7-(pyridin-2-yl)-5H-pyrrolo[2,3-b]pyrazin-6-yl]pyridin-2-yl}butanamide], for which the IC50 in test [1] and in test [2] was 3.04 nM in each case.

For `CC(C)(O)c1cc(F)nc2c(-c3ccccn3)c(-c3ccnc(NC(=O)C(CC(F)F)c4ccc(F)cc4)c3)[nH]c12` (single isomer, unassigned) [Example 100, (2R or S)-4,4-difluoro-N-{4-[5-fluoro-7-(2-hydroxypropan-2-yl)-3-(pyridin-2-yl)-1H-pyrrolo[3,2-b]pyridin-2-yl]pyridin-2-yl}-2-(4-fluorophenyl)butanamide], the IC50 in test [1] and in test [2] was 33.6 nM each time.

`O=C(Nc1cc(-c2[nH]c3c(CC4CC4)cc(F)nc3c2-c2ccccn2)ccn1)C(CC(F)F)c1ccc(F)cc1` (single isomer, unassigned) [Example 47, (2R or S)—N-{4-[7-(cyclopropylmethyl)-5-fluoro-3-(pyridin-2-yl)-1H-pyrrolo[3,2-b]pyridin-2-yl]pyridin-2-yl}-4,4-difluoro-2-(4-fluorophenyl)butanamide]: the IC50 in test [1] and in test [2] was 31.6 nM throughout.

Take `O=C(Nc1cc(-c2[nH]c3c(OCC(F)F)cc(F)nc3c2-c2ccccn2)ccn1)C(CC(F)F)c1ccc(F)cc1` (single isomer, unassigned) [Example 30, (2R or S)—N-{4-[7-(2,2-difluoroethoxy)-5-fluoro-3-(pyridin-2-yl)-1H-pyrrolo[3,2-b]pyridin-2-yl]pyridin-2-yl}-4,4-difluoro-2-(4-fluorophenyl)butanamide]: the IC50 in test [1] and in test [2] was 8.84 nM throughout.

`O=C(Nc1cc(-c2[nH]c3c(OCC(F)(F)F)ncnc3c2-c2ccccn2)ccn1)C(CC(F)(F)F)c1ccc(F)cc1` (racemic) [Example 125, (2RS)-4,4,4-trifluoro-2-(4-fluorophenyl)-N-{4-[7-(pyridin-2-yl)-4-(2,2,2-trifluoroethoxy)-5H-pyrrolo[3,2-d]pyrimidin-6-yl]pyridin-2-yl}butanamide]: the IC50 in test [1] is 14.8 nM; in test [2], 46.1 nM.

As for `O=C(Nc1cc(-c2[nH]c3ccc(F)nc3c2-c2ccc(F)cn2)ccn1)C(CC(F)F)c1ccc(F)cc1` (single isomer, unassigned; (+)) [Example 109, (+)-4,4-difluoro-N-{4-[5-fluoro-3-(5-fluoropyridin-2-yl)-1H-pyrrolo[3,2-b]pyridin-2-yl]pyridin-2-yl}-2-(4-fluorophenyl)butanamide], the IC50 in test [1] and in test [2] was 3.14 nM each time.

As for `O=C(Nc1cc(-c2[nH]c3c(C4CCCO4)cc(F)nc3c2-c2ccccn2)ccn1)C(CC(F)F)c1ccc(F)cc1` (single isomer, unassigned) [Example 116, (2R or S)-4,4-difluoro-N-(4-{5-fluoro-7-[(2R or S)-oxolan-2-yl]-3-(pyridin-2-yl)-1H-pyrrolo[3,2-b]pyridin-2-yl}pyridin-2-yl)-2-(4-fluorophenyl)butanamide], the results for the IC50 in test [1] and in test [2] were 5.1 nM and 13.2 nM, respectively.

In the case of `O=C(Nc1cc(-c2[nH]c3cncnc3c2-c2ccccn2)ccn1)C(CC(F)F)c1ccc(F)cc1` (single isomer, unassigned; (+)) [Example 15, (+)-4,4-difluoro-2-(4-fluorophenyl)-N-{4-[7-(pyridin-2-yl)-5H-pyrrolo[3,2-d]pyrimidin-6-yl]pyridin-2-yl}butanamide], the IC50 in test [1] was 1.32 nM; in test [2] it was 30.9 nM.

In the case of `O=C(Nc1cc(-c2[nH]c3nc(OC(F)F)cnc3c2-c2ccccn2)ccn1)C(CC(F)F)c1ccc(F)cc1` (centres unmarked) [Example 105, N-{4-[3-(difluoromethoxy)-7-(pyridin-2-yl)-5H-pyrrolo[2,3-b]pyrazin-6-yl]pyridin-2-yl}-4,4-difluoro-2-(4-fluorophenyl)butanamide], the IC50 in test [1] and in test [2] was 10.9 nM each time.

As for `O=C(Nc1cc(-c2[nH]c3c(CC4CC4)cc(F)nc3c2-c2ccccn2)ccn1)C(CC(F)F)c1ccc(F)cc1` (racemic) [Example 46, (2RS)—N-{4-[7-(cyclopropylmethyl)-5-fluoro-3-(pyridin-2-yl)-1H-pyrrolo[3,2-b]pyridin-2-yl]pyridin-2-yl}-4,4-difluoro-2-(4-fluorophenyl)butanamide], the IC50 in test [1] and in test [2] was 23.2 nM throughout.

Take `COc1cc(F)nc2c(-c3ccccn3)c(-c3ccnc(NC(=O)C(CC(F)F)c4ccc(F)cc4)c3)[nH]c12` (single isomer, unassigned; (+)) [Example 40, (+)-4,4-difluoro-N-{4-[5-fluoro-7-methoxy-3-(pyridin-2-yl)-1H-pyrrolo[3,2-b]pyridin-2-yl]pyridin-2-yl}-2-(4-fluorophenyl)butanamide]: the IC50 in test [1] and in test [2] was 3.69 nM throughout.

On to `Cc1cc2[nH]c(-c3ccnc(NC(=O)C(CC(F)F)c4ccc(F)cc4)c3)c(-c3ccccn3)c2nc1F` (single isomer, unassigned) [Example 34, 4,4-difluoro-N-{4-[5-fluoro-6-methyl-3-(pyridin-2-yl)-1H-pyrrolo[3,2-b]pyridin-2-yl]pyridin-2-yl}-2-(4-fluorophenyl)butanamide], for which the IC50 in test [1] and in test [2] was 3.79 nM in each case.
